# Tests used:
# Assay in all cases: radiometric filter-binding kinase assay, Kinase HotSpot
# Settings in all cases: compound 0.5 µM; ATP 10 µM
# RET (human) = RET (human) (UniProt P07949)
# PTK2 (human) = PTK2 (human) (UniProt Q05397)
# KDR (human) = KDR (human) (UniProt P35968)
# TEC (human) = TEC (human) (UniProt P42680)
# MYO3B (human) = MYO3B (human) (UniProt Q8WXR4)
# PRKX (human) = PRKX (human) (UniProt P51817)
# ACVR1B (human) = ACVR1B (human) (UniProt P36896)
# FER (human) = FER (human) (UniProt P16591)
# PRKACG (human) = PRKACG (human) (UniProt P22612)
# Chain of PRKACG (human) (P22612 whole entry, looked up): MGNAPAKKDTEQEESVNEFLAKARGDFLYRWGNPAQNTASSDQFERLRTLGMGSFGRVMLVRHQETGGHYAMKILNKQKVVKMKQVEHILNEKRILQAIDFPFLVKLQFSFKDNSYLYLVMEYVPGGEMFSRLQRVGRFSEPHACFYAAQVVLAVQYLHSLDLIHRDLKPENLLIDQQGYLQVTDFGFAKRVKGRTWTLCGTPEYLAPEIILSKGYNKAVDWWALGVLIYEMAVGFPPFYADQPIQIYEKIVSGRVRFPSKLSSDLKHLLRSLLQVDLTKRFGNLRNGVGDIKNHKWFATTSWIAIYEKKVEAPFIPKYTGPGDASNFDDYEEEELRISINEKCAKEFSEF
# HIPK1 (human) = HIPK1 (human) (UniProt Q86Z02)
# AURKC (human) = AURKC (human) (UniProt Q9UQB9)
# SLK (human) = SLK (human) (UniProt Q9H2G2)
# HIPK3 (human) = HIPK3 (human) (UniProt Q9H422)
# PKN1 (human) = PKN1 (human) (UniProt Q16512)
# PRKCH (human) = PRKCH (human) (UniProt P24723)
# OXSR1 (human) = OXSR1 (human) (UniProt O95747)
# Chain of OXSR1 (human) (O95747 whole entry, looked up): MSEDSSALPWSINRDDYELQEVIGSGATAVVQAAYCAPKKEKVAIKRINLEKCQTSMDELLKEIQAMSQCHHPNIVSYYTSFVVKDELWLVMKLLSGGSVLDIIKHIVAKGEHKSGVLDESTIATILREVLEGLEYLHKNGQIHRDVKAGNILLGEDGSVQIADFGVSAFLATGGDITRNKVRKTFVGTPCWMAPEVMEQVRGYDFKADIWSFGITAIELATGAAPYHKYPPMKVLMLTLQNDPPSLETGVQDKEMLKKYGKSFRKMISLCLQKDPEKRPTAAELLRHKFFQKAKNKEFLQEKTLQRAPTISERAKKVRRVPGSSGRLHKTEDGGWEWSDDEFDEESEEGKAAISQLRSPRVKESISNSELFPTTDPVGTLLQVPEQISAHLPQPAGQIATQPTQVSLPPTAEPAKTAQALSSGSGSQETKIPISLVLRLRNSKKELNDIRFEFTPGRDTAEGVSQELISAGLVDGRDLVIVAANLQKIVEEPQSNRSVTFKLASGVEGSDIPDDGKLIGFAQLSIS
# MATK (human) = MATK (human) (UniProt P42679)
# NLK (human) = NLK (human) (UniProt Q9UBE8)
# MAP2K2 (human) = MAP2K2 (human) (UniProt P36507)
# Chain of MAP2K2 (human) (P36507 whole entry, looked up): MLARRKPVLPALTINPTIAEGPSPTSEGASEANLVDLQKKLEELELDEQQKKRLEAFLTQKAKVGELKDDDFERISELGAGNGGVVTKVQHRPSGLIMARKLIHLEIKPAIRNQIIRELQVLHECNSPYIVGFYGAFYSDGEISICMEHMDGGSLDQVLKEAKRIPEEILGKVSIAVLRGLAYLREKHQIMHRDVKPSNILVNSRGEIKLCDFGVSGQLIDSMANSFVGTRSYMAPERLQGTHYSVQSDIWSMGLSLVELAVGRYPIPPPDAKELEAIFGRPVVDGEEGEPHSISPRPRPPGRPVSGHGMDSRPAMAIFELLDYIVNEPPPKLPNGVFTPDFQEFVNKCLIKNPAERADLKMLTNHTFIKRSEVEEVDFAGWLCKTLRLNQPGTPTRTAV
# CDC42BPA (human) = CDC42BPA (human) (UniProt Q5VT25)
# TAOK3 (human) = TAOK3 (human) (UniProt Q9H2K8)
# ULK1 (human) = ULK1 (human) (UniProt O75385)
# MELK (human) = MELK (human) (UniProt Q14680)
# NEK7 (human) = NEK7 (human) (UniProt Q8TDX7)
# FGFR3 (human) = FGFR3 (human) (UniProt P22607)
# CSNK1A1 (human) = CSNK1A1 (human) (UniProt P48729)
# MAP3K3 (human) = MAP3K3 (human) (UniProt Q99759)
# CSF1R (human) = CSF1R (human) (UniProt P07333)
# Chain of CSF1R (human) (P07333 whole entry, looked up): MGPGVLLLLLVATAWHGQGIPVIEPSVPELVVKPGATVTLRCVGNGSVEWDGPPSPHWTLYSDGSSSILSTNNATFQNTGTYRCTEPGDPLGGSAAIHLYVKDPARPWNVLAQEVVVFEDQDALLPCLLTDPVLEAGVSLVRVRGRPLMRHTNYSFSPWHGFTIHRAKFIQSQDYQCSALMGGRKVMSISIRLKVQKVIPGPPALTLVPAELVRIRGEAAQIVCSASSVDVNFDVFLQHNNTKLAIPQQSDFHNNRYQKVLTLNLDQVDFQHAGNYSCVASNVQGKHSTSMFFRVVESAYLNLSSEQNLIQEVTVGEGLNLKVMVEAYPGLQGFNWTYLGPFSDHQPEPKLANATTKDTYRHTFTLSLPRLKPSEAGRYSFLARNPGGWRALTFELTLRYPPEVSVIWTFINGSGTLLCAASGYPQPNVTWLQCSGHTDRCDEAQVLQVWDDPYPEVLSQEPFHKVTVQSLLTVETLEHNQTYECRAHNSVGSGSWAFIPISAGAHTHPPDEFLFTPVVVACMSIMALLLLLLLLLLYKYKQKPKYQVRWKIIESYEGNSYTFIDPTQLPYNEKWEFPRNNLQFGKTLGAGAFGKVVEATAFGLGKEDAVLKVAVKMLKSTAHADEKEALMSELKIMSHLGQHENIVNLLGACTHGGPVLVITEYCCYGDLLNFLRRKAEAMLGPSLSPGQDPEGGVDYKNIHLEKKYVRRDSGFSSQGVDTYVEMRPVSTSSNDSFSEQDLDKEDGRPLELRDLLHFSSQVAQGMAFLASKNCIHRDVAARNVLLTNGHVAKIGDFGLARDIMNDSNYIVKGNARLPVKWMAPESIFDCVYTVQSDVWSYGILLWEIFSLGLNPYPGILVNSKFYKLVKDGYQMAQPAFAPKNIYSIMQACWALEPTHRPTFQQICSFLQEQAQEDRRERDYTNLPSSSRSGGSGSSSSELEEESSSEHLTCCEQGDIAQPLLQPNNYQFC
# MAP3K14 (human) = MAP3K14 (human) (UniProt Q99558)
# PDGFRA (human) = PDGFRA (human) (UniProt P16234)
# ALK (human) = ALK (human) (UniProt Q9UM73)
# PIM3 (human) = PIM3 (human) (UniProt Q86V86)
# LIMK1 (human) = LIMK1 (human) (UniProt P53667)
# VRK1 (human) = VRK1 (human) (UniProt Q99986)
# ACVRL1 (human) = ACVRL1 (human) (UniProt P37023)
# TNK2 (human) = TNK2 (human) (UniProt Q07912)
# RPS6KB2 (human) = RPS6KB2 (human) (UniProt Q9UBS0)
# Chain of RPS6KB2 (human) (Q9UBS0 whole entry, looked up): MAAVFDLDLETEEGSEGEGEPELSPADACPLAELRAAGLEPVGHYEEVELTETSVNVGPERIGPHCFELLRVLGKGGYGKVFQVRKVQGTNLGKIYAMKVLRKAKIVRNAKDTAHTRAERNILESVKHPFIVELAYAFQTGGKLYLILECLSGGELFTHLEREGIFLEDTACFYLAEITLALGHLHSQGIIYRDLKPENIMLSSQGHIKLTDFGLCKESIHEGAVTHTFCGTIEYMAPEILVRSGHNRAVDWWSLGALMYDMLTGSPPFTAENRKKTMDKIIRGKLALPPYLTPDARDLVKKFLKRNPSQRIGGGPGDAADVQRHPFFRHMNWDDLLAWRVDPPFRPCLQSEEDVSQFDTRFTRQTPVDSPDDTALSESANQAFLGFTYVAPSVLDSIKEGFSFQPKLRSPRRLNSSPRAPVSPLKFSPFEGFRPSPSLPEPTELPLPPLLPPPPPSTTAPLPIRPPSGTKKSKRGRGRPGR
# PHKG1 (human) = PHKG1 (human) (UniProt Q16816)
# Chain of PHKG1 (human) (Q16816 whole entry, looked up): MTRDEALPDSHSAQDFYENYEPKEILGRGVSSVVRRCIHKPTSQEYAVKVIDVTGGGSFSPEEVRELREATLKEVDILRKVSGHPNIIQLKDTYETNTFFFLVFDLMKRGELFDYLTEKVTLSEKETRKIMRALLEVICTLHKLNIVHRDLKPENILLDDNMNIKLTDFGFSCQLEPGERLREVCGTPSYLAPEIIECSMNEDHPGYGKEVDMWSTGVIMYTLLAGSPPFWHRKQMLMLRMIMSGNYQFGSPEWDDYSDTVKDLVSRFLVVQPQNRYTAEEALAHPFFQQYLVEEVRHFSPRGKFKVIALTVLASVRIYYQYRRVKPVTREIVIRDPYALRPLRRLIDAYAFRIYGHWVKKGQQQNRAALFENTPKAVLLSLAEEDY
# CAMK1D (human) = CAMK1D (human) (UniProt Q8IU85)
# STK24 (human) = STK24 (human) (UniProt Q9Y6E0)
# Chain of STK24 (human) (Q9Y6E0 whole entry, looked up): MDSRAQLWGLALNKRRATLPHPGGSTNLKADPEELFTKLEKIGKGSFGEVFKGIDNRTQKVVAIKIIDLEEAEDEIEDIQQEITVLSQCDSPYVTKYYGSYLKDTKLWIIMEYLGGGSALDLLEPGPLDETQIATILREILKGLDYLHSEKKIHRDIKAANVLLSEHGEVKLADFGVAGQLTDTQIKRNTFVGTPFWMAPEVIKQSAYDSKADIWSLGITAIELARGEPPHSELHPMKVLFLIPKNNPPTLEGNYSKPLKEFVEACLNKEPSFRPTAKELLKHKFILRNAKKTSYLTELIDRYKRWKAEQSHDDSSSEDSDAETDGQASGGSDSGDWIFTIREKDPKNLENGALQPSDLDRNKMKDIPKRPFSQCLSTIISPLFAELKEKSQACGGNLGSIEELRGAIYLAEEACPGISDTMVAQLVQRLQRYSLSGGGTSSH
# RPS6KA4 KD2 (human) = RPS6KA4 KD2 (human) (UniProt O75676)
# ERBB4 (human) = ERBB4 (human) (UniProt Q15303)
# Chain of TEC (human) (P42680 whole entry, looked up): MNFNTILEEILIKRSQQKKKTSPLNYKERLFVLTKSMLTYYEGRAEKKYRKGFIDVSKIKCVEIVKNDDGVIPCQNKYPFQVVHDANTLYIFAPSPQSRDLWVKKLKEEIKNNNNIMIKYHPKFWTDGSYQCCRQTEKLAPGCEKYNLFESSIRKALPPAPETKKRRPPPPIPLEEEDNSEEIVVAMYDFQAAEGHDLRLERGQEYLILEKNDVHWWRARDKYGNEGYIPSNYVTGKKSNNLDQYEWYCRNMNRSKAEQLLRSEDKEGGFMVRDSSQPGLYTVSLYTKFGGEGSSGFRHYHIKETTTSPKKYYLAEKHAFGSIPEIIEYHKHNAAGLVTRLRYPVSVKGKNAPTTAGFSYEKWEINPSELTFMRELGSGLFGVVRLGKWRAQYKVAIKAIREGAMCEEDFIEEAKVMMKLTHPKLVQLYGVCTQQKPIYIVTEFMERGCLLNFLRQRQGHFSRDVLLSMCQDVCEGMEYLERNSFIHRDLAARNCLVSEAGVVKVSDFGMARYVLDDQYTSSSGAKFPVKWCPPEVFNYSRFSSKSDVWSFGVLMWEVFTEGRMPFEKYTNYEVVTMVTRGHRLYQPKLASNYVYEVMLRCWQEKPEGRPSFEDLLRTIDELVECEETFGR
# Chain of PRKX (human) (P51817 whole entry, looked up): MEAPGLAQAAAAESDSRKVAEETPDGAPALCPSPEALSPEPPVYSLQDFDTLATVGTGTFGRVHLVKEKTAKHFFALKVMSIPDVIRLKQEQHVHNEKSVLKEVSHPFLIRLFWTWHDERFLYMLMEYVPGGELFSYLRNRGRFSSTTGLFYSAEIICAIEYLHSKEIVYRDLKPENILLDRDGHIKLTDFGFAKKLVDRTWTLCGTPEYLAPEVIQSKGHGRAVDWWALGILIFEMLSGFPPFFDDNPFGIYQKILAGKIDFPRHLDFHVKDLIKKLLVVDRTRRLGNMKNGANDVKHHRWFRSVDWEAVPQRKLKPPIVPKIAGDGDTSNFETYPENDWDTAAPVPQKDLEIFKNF
smiles,measurement,setting,value
CCC(=O)Nc1ccc2ncnc(Nc3cccc(Br)c3)c2c1,residual activity,RET (human),106%
same,residual activity,PTK2 (human),99.4%
same,residual activity,KDR (human),96.5%
same,residual activity,TEC (human),103%
same,residual activity,MYO3B (human),135%
same,residual activity,PRKX (human),95.7%
same,residual activity,ACVR1B (human),96.5%
same,residual activity,FER (human),95.6%
same,residual activity,PRKACG (human),95.5%
same,residual activity,HIPK1 (human),104%
same,residual activity,AURKC (human),102%
same,residual activity,SLK (human),90%
same,residual activity,HIPK3 (human),92.1%
same,residual activity,PKN1 (human),101%
same,residual activity,PRKCH (human),89.3%
same,residual activity,OXSR1 (human),107%
same,residual activity,MATK (human),93.4%
same,residual activity,NLK (human),95.9%
same,residual activity,MAP2K2 (human),85.1%
same,residual activity,CDC42BPA (human),101%
same,residual activity,TAOK3 (human),89.2%
same,residual activity,ULK1 (human),103%
same,residual activity,MELK (human),93.4%
same,residual activity,NEK7 (human),92.7%
same,residual activity,FGFR3 (human),93.2%
same,residual activity,CSNK1A1 (human),97%
same,residual activity,MAP3K3 (human),89.8%
same,residual activity,CSF1R (human),98.9%
same,residual activity,MAP3K14 (human),116%
same,residual activity,PDGFRA (human),107%
same,residual activity,ALK (human),83.1%
same,residual activity,PIM3 (human),76.6%
same,residual activity,LIMK1 (human),88.7%
same,residual activity,VRK1 (human),94.4%
same,residual activity,ACVRL1 (human),97.4%
same,residual activity,TNK2 (human),93.5%
same,residual activity,RPS6KB2 (human),94.9%
same,residual activity,PHKG1 (human),92.4%
same,residual activity,CAMK1D (human),104%
same,residual activity,STK24 (human),102%
same,residual activity,RPS6KA4 KD2 (human),106%
same,residual activity,ERBB4 (human),82.3%
CCN(CC)CCNC(=O)c1c(C)[nH]c(/C=C2\C(=O)Nc3ccc(F)cc32)c1C,residual activity,RET (human),3.43%
same,residual activity,TEC (human),94.8%
same,residual activity,MYO3B (human),54.5%
same,residual activity,PRKX (human),105%
same,residual activity,ACVR1B (human),101%
same,residual activity,FER (human),31.6%
same,residual activity,PRKACG (human),109%
same,residual activity,HIPK1 (human),71.3%
same,residual activity,AURKC (human),72.8%
same,residual activity,SLK (human),63.8%
same,residual activity,HIPK3 (human),47.3%
same,residual activity,PKN1 (human),71.4%
same,residual activity,PRKCH (human),112%
same,residual activity,OXSR1 (human),105%
same,residual activity,MATK (human),88.8%
same,residual activity,NLK (human),105%
same,residual activity,MAP2K2 (human),25.4%
same,residual activity,CDC42BPA (human),89.5%
same,residual activity,TAOK3 (human),82.9%
same,residual activity,ULK1 (human),16.3%
same,residual activity,MELK (human),10.4%
same,residual activity,NEK7 (human),93.5%
same,residual activity,FGFR3 (human),39.7%
same,residual activity,MAP3K3 (human),42%
same,residual activity,CSF1R (human),7.28%
same,residual activity,MAP3K14 (human),127%
same,residual activity,PDGFRA (human),10.9%
same,residual activity,ALK (human),16.6%
same,residual activity,PIM3 (human),56.8%
same,residual activity,LIMK1 (human),94.3%
same,residual activity,VRK1 (human),97.3%
same,residual activity,ACVRL1 (human),112%
same,residual activity,TNK2 (human),64.1%
same,residual activity,RPS6KB2 (human),113%
same,residual activity,PHKG1 (human),5.12%
same,residual activity,STK24 (human),39.7%
same,residual activity,RPS6KA4 KD2 (human),50.8%
same,residual activity,ERBB4 (human),94.8%
Oc1cccc(-c2nc(N3CCOCC3)c3oc4ncccc4c3n2)c1,residual activity,RET (human),99.8%
same,residual activity,PTK2 (human),93.5%
same,residual activity,KDR (human),85.9%
same,residual activity,TEC (human),113%
same,residual activity,MYO3B (human),81.3%
same,residual activity,PRKX (human),96.2%
same,residual activity,FER (human),97.8%
same,residual activity,PRKACG (human),101%
same,residual activity,HIPK1 (human),101%
same,residual activity,AURKC (human),98.1%
same,residual activity,SLK (human),101%
same,residual activity,HIPK3 (human),93.8%
same,residual activity,PKN1 (human),101%
same,residual activity,PRKCH (human),89.8%
same,residual activity,OXSR1 (human),93.2%
same,residual activity,MATK (human),86.7%
same,residual activity,NLK (human),97.4%
same,residual activity,MAP2K2 (human),85%
same,residual activity,CDC42BPA (human),94.5%
same,residual activity,TAOK3 (human),86.8%
same,residual activity,ULK1 (human),113%
same,residual activity,MELK (human),75.5%
same,residual activity,NEK7 (human),97.3%
same,residual activity,FGFR3 (human),101%
same,residual activity,CSNK1A1 (human),87.9%
same,residual activity,CSF1R (human),108%
same,residual activity,PDGFRA (human),99.4%
same,residual activity,ALK (human),90.5%
same,residual activity,PIM3 (human),104%
same,residual activity,LIMK1 (human),93.7%
same,residual activity,VRK1 (human),98.4%
same,residual activity,ACVRL1 (human),105%
same,residual activity,TNK2 (human),89.6%
same,residual activity,RPS6KB2 (human),95.8%
same,residual activity,PHKG1 (human),93.3%
same,residual activity,CAMK1D (human),121%
same,residual activity,STK24 (human),100%
same,residual activity,RPS6KA4 KD2 (human),104%
same,residual activity,ERBB4 (human),97.6%
c1ccc(-c2n[nH]cc2-c2ccnc3ccccc23)nc1,residual activity,RET (human),93.8%
same,residual activity,PTK2 (human),99.3%
same,residual activity,KDR (human),103%
same,residual activity,TEC (human),106%
same,residual activity,MYO3B (human),91.7%
same,residual activity,PRKX (human),102%
same,residual activity,ACVR1B (human),43.2%
same,residual activity,FER (human),86%
same,residual activity,PRKACG (human),92.9%
same,residual activity,HIPK1 (human),99.9%
same,residual activity,AURKC (human),100%
same,residual activity,SLK (human),104%
same,residual activity,HIPK3 (human),97%
same,residual activity,PKN1 (human),100%
same,residual activity,PRKCH (human),94.6%
same,residual activity,OXSR1 (human),85.3%
same,residual activity,MATK (human),87.9%
same,residual activity,NLK (human),79.8%
same,residual activity,MAP2K2 (human),106%
same,residual activity,TAOK3 (human),92.8%
same,residual activity,ULK1 (human),85.9%
same,residual activity,MELK (human),93.3%
same,residual activity,NEK7 (human),102%
same,residual activity,FGFR3 (human),97.4%
same,residual activity,CSNK1A1 (human),74.6%
same,residual activity,MAP3K3 (human),79.4%
same,residual activity,CSF1R (human),95.5%
same,residual activity,MAP3K14 (human),116%
same,residual activity,PDGFRA (human),98.1%
same,residual activity,ALK (human),111%
same,residual activity,PIM3 (human),90.6%
same,residual activity,LIMK1 (human),103%
same,residual activity,VRK1 (human),92.6%
same,residual activity,ACVRL1 (human),102%
same,residual activity,TNK2 (human),96.2%
same,residual activity,RPS6KB2 (human),101%
same,residual activity,PHKG1 (human),94.2%
same,residual activity,CAMK1D (human),100%
same,residual activity,STK24 (human),96.8%
same,residual activity,RPS6KA4 KD2 (human),87.2%
same,residual activity,ERBB4 (human),85.7%
CC(C)N(CCC(=O)c1ccc2ccccc2c1)Cc1ccccc1,residual activity,RET (human),101%
same,residual activity,PTK2 (human),96.3%
same,residual activity,KDR (human),98.9%
same,residual activity,TEC (human),115%
same,residual activity,MYO3B (human),93.5%
same,residual activity,PRKX (human),99.6%
same,residual activity,ACVR1B (human),99.5%
same,residual activity,FER (human),105%
same,residual activity,PRKACG (human),107%
same,residual activity,HIPK1 (human),106%
same,residual activity,AURKC (human),97.5%
same,residual activity,SLK (human),101%
same,residual activity,HIPK3 (human),115%
same,residual activity,PKN1 (human),107%
same,residual activity,PRKCH (human),97.3%
same,residual activity,OXSR1 (human),106%
same,residual activity,MATK (human),80.7%
same,residual activity,NLK (human),94.8%
same,residual activity,MAP2K2 (human),92.5%
same,residual activity,CDC42BPA (human),99.4%
same,residual activity,TAOK3 (human),87.8%
same,residual activity,ULK1 (human),104%
same,residual activity,MELK (human),99.4%
same,residual activity,NEK7 (human),95.2%
same,residual activity,FGFR3 (human),99.8%
same,residual activity,CSNK1A1 (human),88.4%
same,residual activity,MAP3K3 (human),102%
same,residual activity,CSF1R (human),98.6%
same,residual activity,MAP3K14 (human),117%
same,residual activity,PDGFRA (human),96.5%
same,residual activity,ALK (human),88.9%
same,residual activity,PIM3 (human),105%
same,residual activity,LIMK1 (human),103%
same,residual activity,VRK1 (human),95.8%
same,residual activity,ACVRL1 (human),107%
same,residual activity,TNK2 (human),92.4%
same,residual activity,RPS6KB2 (human),94.3%
same,residual activity,PHKG1 (human),91.6%
same,residual activity,STK24 (human),96.6%
same,residual activity,RPS6KA4 KD2 (human),109%
same,residual activity,ERBB4 (human),91.7%

# — the kinase profiling compilation of Christmann-Franck et al. (2016)
